Measurements as given in paper PMC12406203 (Journal of Medicinal Chemistry, 2025).

Key:
Assay in all cases: KINOMEscan
Format in all cases: binding
INSR = target: T1, INSR (Homo sapiens, UniProt P06213)
T1 construct: purchased Eurofins DiscoverX, LLC; host or cells: E. coli (T7 phage) or HEK-293

FAK = target: T2, FAK (Homo sapiens, UniProt Q05397)
T2 construct: purchased Eurofins DiscoverX, LLC; host or cells: E. coli (T7 phage) or HEK-293

KIT = target: T3, KIT (Homo sapiens, UniProt P10721)
T3 construct: purchased Eurofins DiscoverX, LLC; host or cells: E. coli (BL21-derived, T7 phage) or HEK-293

BMPR2 = target: T4, BMPR2 (Homo sapiens, UniProt Q13873)
T4 construct: purchased Eurofins DiscoverX, LLC; host or cells: E. coli BL21-derived (T7 phage) or HEK-293
T4 sequence (Q13873 27-1038): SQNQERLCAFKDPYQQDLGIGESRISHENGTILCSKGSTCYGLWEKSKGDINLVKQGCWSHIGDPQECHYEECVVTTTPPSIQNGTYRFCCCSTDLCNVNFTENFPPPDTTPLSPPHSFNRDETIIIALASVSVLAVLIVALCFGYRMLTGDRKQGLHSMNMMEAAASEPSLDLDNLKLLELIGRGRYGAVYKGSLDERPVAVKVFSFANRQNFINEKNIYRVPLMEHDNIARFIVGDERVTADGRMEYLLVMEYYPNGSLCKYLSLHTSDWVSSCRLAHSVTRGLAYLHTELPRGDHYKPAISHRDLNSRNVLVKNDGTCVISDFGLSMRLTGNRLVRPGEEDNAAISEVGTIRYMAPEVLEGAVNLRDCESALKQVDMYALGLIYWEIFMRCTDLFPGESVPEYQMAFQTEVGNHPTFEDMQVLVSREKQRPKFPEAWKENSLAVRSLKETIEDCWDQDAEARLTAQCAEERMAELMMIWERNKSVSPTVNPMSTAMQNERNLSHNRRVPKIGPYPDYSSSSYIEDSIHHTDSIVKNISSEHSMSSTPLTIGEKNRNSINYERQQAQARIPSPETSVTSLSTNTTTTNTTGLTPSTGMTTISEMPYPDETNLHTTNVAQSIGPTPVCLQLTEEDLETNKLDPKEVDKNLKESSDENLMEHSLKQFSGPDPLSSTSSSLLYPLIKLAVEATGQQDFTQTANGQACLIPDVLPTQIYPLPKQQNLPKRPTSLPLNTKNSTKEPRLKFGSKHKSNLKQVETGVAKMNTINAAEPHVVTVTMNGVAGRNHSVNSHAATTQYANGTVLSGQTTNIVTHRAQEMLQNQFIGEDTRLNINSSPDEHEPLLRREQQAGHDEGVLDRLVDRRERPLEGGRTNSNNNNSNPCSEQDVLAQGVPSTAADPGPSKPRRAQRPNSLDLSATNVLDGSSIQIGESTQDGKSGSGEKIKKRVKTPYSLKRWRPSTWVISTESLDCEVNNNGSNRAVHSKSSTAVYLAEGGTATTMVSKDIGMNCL

MKNK2 = target: T5, MKNK2 (Homo sapiens, UniProt Q9HBH9)
T5 construct: purchased Eurofins DiscoverX, LLC; host or cells: E. coli (BL21-derived, T7 phage) or HEK-293

LKB1 = target: T6, LKB1 (Homo sapiens, UniProt Q15831)
T6 construct: purchased Eurofins DiscoverX, LLC; host or cells: E. coli (BL21-derived, T7 phage) or HEK-293
T6 sequence (Q15831 1-433): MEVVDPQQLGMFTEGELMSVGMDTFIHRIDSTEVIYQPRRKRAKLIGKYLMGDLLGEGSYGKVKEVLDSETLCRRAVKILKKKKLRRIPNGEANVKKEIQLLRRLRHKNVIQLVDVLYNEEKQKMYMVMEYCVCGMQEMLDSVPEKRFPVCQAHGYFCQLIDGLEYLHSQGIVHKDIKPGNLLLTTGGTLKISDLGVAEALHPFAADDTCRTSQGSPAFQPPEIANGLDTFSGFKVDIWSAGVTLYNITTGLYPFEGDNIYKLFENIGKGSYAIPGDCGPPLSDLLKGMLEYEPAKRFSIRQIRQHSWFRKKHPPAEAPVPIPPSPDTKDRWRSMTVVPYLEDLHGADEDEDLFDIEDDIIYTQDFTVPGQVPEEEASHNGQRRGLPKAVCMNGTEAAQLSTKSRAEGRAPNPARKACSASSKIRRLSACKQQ

p38β = target: T7, p38β (Homo sapiens, UniProt Q15759)
T7 construct: purchased Eurofins DiscoverX, LLC; host or cells: E. coli (BL21-derived, T7 phage) or HEK-293

AURKB = target: T8, AURKB (Homo sapiens, UniProt Q96GD4)
T8 construct: purchased Eurofins DiscoverX, LLC; host or cells: E. coli BL21-derived (T7 phage) or HEK-293
T8 sequence (Q96GD4 whole entry): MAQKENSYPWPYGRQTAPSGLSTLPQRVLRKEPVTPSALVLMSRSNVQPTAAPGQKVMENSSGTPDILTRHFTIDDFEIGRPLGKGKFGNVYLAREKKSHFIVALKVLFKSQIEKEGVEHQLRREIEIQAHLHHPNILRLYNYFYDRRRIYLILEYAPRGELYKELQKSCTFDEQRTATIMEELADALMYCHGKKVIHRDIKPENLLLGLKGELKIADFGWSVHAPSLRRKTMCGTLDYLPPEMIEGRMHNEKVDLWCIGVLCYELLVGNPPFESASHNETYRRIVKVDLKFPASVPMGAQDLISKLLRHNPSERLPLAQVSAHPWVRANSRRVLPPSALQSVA

T5 sequence (Q9HBH9 whole entry): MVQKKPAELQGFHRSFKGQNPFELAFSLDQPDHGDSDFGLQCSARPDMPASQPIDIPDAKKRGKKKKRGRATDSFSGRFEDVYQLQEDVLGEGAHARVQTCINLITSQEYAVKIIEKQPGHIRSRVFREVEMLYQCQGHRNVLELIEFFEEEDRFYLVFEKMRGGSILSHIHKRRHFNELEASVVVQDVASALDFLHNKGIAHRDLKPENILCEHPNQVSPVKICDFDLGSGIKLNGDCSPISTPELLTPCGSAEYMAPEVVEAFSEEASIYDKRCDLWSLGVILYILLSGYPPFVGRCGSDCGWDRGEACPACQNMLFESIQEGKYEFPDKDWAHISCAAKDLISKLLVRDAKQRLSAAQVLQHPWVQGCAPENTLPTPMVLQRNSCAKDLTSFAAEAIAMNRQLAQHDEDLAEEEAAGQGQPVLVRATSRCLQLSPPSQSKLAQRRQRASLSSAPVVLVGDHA
T2 sequence (Q05397 whole entry): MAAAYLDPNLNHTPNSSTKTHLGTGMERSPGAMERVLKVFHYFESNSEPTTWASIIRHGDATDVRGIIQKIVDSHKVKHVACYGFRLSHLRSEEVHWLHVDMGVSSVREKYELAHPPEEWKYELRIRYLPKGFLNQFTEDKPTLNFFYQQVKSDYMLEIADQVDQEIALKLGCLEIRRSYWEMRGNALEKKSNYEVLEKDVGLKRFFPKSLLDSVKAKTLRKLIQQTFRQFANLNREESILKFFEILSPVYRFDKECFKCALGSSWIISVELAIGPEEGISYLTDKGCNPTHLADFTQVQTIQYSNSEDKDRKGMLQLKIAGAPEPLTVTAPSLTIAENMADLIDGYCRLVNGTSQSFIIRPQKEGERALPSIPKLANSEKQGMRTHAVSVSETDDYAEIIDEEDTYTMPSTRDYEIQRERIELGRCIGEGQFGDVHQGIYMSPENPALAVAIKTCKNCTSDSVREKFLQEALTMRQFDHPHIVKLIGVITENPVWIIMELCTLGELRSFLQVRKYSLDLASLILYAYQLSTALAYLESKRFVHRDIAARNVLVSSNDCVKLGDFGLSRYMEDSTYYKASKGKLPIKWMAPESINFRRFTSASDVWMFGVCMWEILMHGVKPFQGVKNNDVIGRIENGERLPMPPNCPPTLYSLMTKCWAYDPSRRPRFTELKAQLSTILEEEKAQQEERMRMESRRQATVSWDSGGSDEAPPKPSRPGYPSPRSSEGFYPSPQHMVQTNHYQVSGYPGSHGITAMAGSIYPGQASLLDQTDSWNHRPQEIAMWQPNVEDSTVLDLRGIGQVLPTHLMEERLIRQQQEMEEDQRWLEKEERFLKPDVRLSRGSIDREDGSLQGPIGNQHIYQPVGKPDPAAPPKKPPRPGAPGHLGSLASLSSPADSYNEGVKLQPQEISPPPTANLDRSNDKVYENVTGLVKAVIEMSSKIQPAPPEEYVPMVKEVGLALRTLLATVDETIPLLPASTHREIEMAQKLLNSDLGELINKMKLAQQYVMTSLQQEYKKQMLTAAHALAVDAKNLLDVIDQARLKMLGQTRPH
T7 sequence (Q15759 whole entry): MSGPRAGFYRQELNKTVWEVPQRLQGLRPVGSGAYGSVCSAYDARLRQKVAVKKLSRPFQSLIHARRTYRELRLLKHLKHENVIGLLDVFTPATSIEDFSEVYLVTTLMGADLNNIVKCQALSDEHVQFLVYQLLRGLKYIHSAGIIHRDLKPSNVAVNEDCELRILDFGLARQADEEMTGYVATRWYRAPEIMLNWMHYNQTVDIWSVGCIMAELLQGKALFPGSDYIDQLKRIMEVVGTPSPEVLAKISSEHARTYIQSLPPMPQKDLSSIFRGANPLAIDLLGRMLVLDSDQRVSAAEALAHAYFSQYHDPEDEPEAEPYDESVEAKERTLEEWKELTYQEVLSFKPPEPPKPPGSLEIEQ
T1 sequence (P06213 28-1382): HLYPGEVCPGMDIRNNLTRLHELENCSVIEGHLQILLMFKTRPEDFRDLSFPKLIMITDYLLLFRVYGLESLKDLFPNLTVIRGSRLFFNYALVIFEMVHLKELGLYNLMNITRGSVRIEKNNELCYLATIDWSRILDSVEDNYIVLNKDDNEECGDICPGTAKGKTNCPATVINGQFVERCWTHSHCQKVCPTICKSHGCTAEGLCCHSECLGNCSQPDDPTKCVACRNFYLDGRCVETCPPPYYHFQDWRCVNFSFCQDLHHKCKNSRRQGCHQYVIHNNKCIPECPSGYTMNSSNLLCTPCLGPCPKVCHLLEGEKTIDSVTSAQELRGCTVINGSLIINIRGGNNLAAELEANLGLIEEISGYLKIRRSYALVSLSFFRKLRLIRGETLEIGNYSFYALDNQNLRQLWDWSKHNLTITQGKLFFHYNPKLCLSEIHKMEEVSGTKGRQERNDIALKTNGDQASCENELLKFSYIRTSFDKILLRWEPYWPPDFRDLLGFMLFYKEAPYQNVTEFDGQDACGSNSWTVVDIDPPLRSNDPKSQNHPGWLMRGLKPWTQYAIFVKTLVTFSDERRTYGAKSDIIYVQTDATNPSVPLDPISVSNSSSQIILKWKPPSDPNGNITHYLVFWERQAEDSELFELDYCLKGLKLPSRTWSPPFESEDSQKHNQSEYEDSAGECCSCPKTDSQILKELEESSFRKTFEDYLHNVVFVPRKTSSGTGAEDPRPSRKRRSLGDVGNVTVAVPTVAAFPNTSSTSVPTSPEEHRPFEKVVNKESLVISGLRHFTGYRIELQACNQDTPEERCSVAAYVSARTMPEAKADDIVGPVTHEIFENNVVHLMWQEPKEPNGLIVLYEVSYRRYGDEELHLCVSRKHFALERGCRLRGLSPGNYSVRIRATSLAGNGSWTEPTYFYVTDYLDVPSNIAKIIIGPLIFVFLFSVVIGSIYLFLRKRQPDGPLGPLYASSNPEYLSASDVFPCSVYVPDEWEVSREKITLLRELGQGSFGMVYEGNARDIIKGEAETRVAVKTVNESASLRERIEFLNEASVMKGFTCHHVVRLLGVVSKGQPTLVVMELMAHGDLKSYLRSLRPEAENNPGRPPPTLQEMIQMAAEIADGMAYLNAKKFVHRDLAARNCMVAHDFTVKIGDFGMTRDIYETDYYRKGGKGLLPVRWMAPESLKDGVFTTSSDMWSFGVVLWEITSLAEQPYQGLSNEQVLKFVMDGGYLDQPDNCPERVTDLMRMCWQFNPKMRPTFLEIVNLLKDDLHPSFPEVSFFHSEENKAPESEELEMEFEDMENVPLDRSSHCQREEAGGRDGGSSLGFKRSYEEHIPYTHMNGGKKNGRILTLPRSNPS
T3 sequence (P10721 26-976): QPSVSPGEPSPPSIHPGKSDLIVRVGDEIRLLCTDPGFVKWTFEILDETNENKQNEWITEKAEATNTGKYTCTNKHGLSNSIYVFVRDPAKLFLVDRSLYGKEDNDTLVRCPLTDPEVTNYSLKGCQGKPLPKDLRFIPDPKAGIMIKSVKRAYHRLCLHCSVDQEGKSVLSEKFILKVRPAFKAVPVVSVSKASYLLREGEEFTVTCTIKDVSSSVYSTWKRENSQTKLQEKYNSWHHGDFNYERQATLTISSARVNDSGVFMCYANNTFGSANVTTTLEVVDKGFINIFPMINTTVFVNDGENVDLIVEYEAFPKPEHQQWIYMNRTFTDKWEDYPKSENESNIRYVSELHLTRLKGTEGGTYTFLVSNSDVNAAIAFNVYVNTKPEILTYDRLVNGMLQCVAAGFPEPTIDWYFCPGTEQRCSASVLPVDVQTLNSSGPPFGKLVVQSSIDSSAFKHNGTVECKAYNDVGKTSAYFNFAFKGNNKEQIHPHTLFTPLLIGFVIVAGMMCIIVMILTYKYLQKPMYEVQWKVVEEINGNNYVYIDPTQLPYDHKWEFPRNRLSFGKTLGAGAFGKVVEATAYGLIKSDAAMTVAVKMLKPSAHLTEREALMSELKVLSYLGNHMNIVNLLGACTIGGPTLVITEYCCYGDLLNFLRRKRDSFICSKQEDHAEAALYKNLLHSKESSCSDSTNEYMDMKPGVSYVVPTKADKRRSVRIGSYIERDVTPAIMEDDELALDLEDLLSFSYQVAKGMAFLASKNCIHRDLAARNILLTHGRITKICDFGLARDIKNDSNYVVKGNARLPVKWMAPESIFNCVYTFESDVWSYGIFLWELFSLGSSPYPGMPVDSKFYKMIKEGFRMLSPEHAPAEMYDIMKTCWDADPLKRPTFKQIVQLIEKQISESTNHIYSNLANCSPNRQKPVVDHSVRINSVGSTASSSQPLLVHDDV

Row | Compound | RA @ 1000nM (INSR) | RA @ 10000nM (INSR) | RA @ 1000nM (FAK) | RA @ 10000nM (FAK) | RA @ 1000nM (KIT) | RA @ 10000nM (KIT) | RA @ 1000nM (BMPR2) | RA @ 10000nM (BMPR2) | RA @ 1000nM (MKNK2) | RA @ 10000nM (MKNK2) | RA @ 1000nM (LKB1) | RA @ 10000nM (LKB1) | RA @ 1000nM (p38β) | RA @ 10000nM (p38β) | RA @ 1000nM (AURKB) | RA @ 10000nM (AURKB)
1 | CN(C)CCNC(=O)c1cc2c(cnn2CC2CCCCC2)cc1Cc1ccc(F)cc1F [Compound 95, 1-(Cyclohexylmethyl)-5-(2,4-difluorobenzyl)-N-(2-(dimethylamino)ethyl)-1H-indazole-6-carboxamide] | 84% | 81% | 92% | 94% | 100% | 100% | 89% | 92% | 81% | 67% | 100% | 86% | 84% | 18% | 99% | 71%
2 | CC(C)Cn1ncc2cc(Cc3ccc(F)cc3F)c(C(=O)NCCN(C)C)cc21 [Compound 94, 5-(2,4-Difluorobenzyl)-N-(2-(dimethylamino)ethyl)-1-isobutyl-1H-indazole-6-carboxamide] | 81% | 90% | 96% | 89% | 100% | 100% | 86% | 95% | 76% | 80% | 100% | 96% | 72% | 15% | 84% | 68%
